The values below come from patent US20260130928A1, “COMBINATION OF AKR1C3 ACTIVATED ANTICANCER PRODRUG COMPOUND AND ANALGESIC DRUG FOR TREATING CANCER PATIENTS ACCOMPANIED BY PAIN” (ASCENTAWITS PHARMACEUTICALS, LTD., priority 2022, published 2026).

Data set [1] concerns human lung cancer NCI-H460. Briefly: Pharmacodynamics in subcutaneous xenograft model of human lung cancer NCI-H460 (tumor volume, TGI). The data set is classed as in vivo, BALB/c nude mice. The protocol:
Measures of pharmacodynamics of AST-3424 monotherapy and combination therapy with Celecoxib were performed in a subcutaneous xenograft model of human lung cancer NCI-H460 established by using female BALB/c nude mice.
After the inoculation of tumor cell, tumor growth was routinely monitored, and tumor volume and mouse weight were measured. Evaluation of therapeutic efficiency was based on the relative tumor growth inhibition TGI (%). The specific results are shown in Table 3 and FIG. 3, and the Pharmacodynamics analysis data on Day 30 after inoculation (at the end of drug administration) are particularly given in Table 4.
(Xenograft models place foreign cells or tissue in a host animal.)

The conditions of data set [2]: read-out: Cmax converted to the molar concentration; celecoxib single dosage (200 mg) in healthy subjects.
For data set [3] the following is noted: cited from earlier work.
A short description of data set [4]: Body weight / tolerance of mice in the human lung cancer NCI-H460 model.
Method: BALB/c nude mice were subcutaneously inoculated with human lung cancer NCI-H460 cells to establish the subcutaneous transplant tumor model of human lung cancer. The experiment was assigned to seven groups, with 5 mice in each group: the test drug Celecoxib 50 mg/kg and 100 mg/kg groups, the AST-3424 2.5 mg/kg group, and different combination therapy groups of Celecoxib 50 mg/kg or 100 mg/kg and AST-3424 2.5 mg/kg, and the 0.5% sodium carboxymethylcellulose vehicle control group. […] The AST-3424 2.5 mg/kg group was administered by tail vein injection once a week for a total of three weeks, and observed for 7 days. In the combination therapy groups of Celecoxib 50 mg/kg or 100 mg/kg and AST-3424 2.5 mg/kg, Celecoxib was administered by gavage once a day for a total of 15 days, and AST-3424 was administered by tail vein injection once a week for a total of three weeks, and observed for 7 days.
The test system of another data set is H460 cell line. Briefly: In vitro cell proliferation inhibition with the drug combination (CTG method). The format is cell-based, human. The following applies: combined with AST-3424. As for the experimental part: • a) H460 cells (human non-small lung cancer cells, AKR1C3 enzyme highly expressed) were cultured in RPMI-1640 medium, added with 10% FBS and 1% double antibody, and placed at 37° C. and 5% CO2 for culturing.
• a) The cells were routinely cultured until the cell saturation was 80%-90%, and when the required quantity was reached, the cells were collected. • b) The cells were resuspended with the corresponding medium and cell counts were performed to prepare a cell suspension with appropriate density. • c) The cell suspension was added to a 96-well plate with 100 μL per well, and the cell density was 2,000 cells per well. • d) The cells were incubated overnight in an incubator at 37° C. with 5% CO2. 1.1.3 Treating Cells with Compound (72 Hours)
AST-3424 alone: after 24 hours of cell seeding, AST-3424 was administered alone. Specifically, each well was supplemented with 99 μL of growth medium, and then added with 1 μL of the prepared AST-3424 solution to form different concentrations of AST-3424. The plate was shaken gently to ensure uniform mixing, and placed in an incubator at 37° C. with 5% CO2.
The cell plates were placed in the incubator for 72 hours.
1.1.4 Treating Cells with Compound (2 Hours) • a) Administrating single drug: after 24 hours of cell seeding, AST-3424 was administered alone. Specifically, each well was supplemented with 99 μL of growth medium, and then added with 1 μL of the prepared AST-3424 solution to form different concentrations of AST-3424. The plate was shaken gently to ensure uniform mixing, and placed in the incubator for 2 hours. […] The plate was shaken gently to ensure uniform mixing. After the plate was placed in the incubator for 2 hours, 1 μL of the prepared AST-3424 solution was added to form different concentrations of AST-3424. The plate was shaken gently to ensure uniform mixing, and placed in the incubator at 37° C. with 5% CO2 for another 2 hours. Then, the supernatant was discarded, and the remainder was washed twice with growth medium and added with 200 μL of fresh medium.
1.1.6 Detecting with CTG Method • a) The cell plate to be tested was placed at room temperature to equilibrium for 30 minutes, and 100 μL of culture medium was discarded from each well. • b) 25 μL CTG reagent (CelltiterGlo kit) was added to each well. The plate was placed on a fast shaker to shake for 2 minutes, and then placed at room temperature away from light for 30 minutes. • c) The chemiluminescent signal value was read with multifunctional microplate reader at reading time of 1000 ms.
IC50 was calculated with GraphPad Prism 5 software, and the IC50 (half maximal inhibitory concentration) of the compound was obtained using the following nonlinear fitting formula: […]

The test system of another data set is AKR1C3. The conditions noted are these: reported in literature; cited from earlier work.
A further data set in a line: clinical. The following applies: human, in vivo.
Where [5] appears, read: Group 2: Celecoxib 50 mg/kg QD×15 p.o., Day 30 after inoculation.
The mark [6] stands for this setting: Group 3: Celecoxib 100 mg/kg QD×15 p.o., Day 30 after inoculation.
The mark [7] stands for this setting: Group 2: Celecoxib 50 mg/kg QD×15 p.o., Day 37 after the inoculation of tumor cell.
The mark [8] stands for this setting: Group 3: Celecoxib 100 mg/kg QD×15 p.o., Day 37 after the inoculation of tumor cell.

Read-outs that look alike come from different tables or passages of the source.

On to `Cc1ccc(-c2cc(C(F)(F)F)nn2-c2ccc(S(N)(=O)=O)cc2)cc1` [Celecoxib], for which the “Tumor volume (x ± S)” value is given as 145.68 ± 12.36 mm^3 in data set [1] (Group 2: Celecoxib 50 mg/kg QD×15 p.o., Day 9 after cell inoculation); 162.55 ± 9.74 mm^3 in data set [1] (Group 2: Celecoxib 50 mg/kg QD×15 p.o., Day 12 after cell inoculation); 175.22 ± 11.61 mm^3 in data set [1] (Group 2: Celecoxib 50 mg/kg QD×15 p.o., Day 16 after cell inoculation); 214.83 ± 26.19 mm^3 in data set [1] (Group 2: Celecoxib 50 mg/kg QD×15 p.o., Day 19 after cell inoculation); 361.15 ± 68.57 mm^3 in data set [1] (Group 2: Celecoxib 50 mg/kg QD×15 p.o., Day 23 after cell inoculation); 471.39 ± 90.94 mm^3 in data set [1] (Group 2: Celecoxib 50 mg/kg QD×15 p.o., Day 26 after cell inoculation). Besides, the “Tumor volume (x ± S)” value in data set [1] (Group 2: Celecoxib 50 mg/kg QD×15 p.o., Day 30 after cell inoculation) is reported as 577.49 ± 102.95 mm^3; in data set [1] (Group 2: Celecoxib 50 mg/kg QD×15 p.o., Day 30 after inoculation, in mm³), 577.49 ± 102.95; in data set [1] (Group 2: Celecoxib 50 mg/kg QD×15 p.o., Day 33 after cell inoculation), 655.39 ± 126.55 mm^3; in data set [1] (Group 2: Celecoxib 50 mg/kg QD×15 p.o., Day 37 after cell inoculation), 1053.12 ± 274.37 mm^3; in data set [1] (Group 3: Celecoxib 100 mg/kg QD×15 p.o., Day 9 after cell inoculation) it was 144.13 ± 11.94 mm^3; in data set [1] (Group 3: Celecoxib 100 mg/kg QD×15 p.o., Day 12 after cell inoculation) it was 166.97 ± 17.80 mm^3. The “Tumor volume (x ± S)” value in data set [1] (Group 3: Celecoxib 100 mg/kg QD×15 p.o., Day 16 after cell inoculation) is recorded as 233.79 ± 48.62 mm^3; in data set [1] (Group 3: Celecoxib 100 mg/kg QD×15 p.o., Day 19 after cell inoculation), 331.06 ± 73.94 mm^3; in data set [1] (Group 3: Celecoxib 100 mg/kg QD×15 p.o., Day 23 after cell inoculation) it was 479.72 ± 117.21 mm^3; in data set [1] (Group 3: Celecoxib 100 mg/kg QD×15 p.o., Day 26 after cell inoculation), 581.86 ± 130.92 mm^3; in data set [1] (Group 3: Celecoxib 100 mg/kg QD×15 p.o., Day 30 after cell inoculation), 730.52 ± 183.64 mm^3; in data set [1] (Group 3: Celecoxib 100 mg/kg QD×15 p.o., Day 30 after inoculation, in mm³) it was 730.52 ± 183.64. The “Tumor volume (x ± S)” value in data set [1] (Group 3: Celecoxib 100 mg/kg QD×15 p.o., Day 33 after cell inoculation) stood at 867.83 ± 225.15 mm^3; in data set [1] (Group 3: Celecoxib 100 mg/kg QD×15 p.o., Day 37 after cell inoculation), 1459.88 ± 505.50 mm^3. The “Relative tumor volume (x ± S)” value worked out at 3.91 ± 0.45 in data set [1] (setting [5]) and 4.86 ± 0.82 in data set [1] (setting [6]). Besides, the entries for the “T/C (%)” value in data set [1] (setting [5]) and in data set [1] (setting [6]) were 70.13% and 87.16%, respectively. Further, the “TGI (%)” value in data set [1] (setting [5]) is on record as 29.87%; in data set [1] (setting [6]), 12.84%. The Cmax was 1.85 µM in data set [2] and 705 ng/mL in data set [3] (celecoxib single dosage (200 mg) in healthy subjects, drug instructions). Further, the “Mean body weight g (x ± S)” value in data set [4] (Group 2: Celecoxib 50 mg/kg QD×15 p.o., Day 9 after the inoculation of tumor cell) came out at 24.8 ± 0.5 g; in data set [4] (setting [7]) it was 25.8 ± 0.4 g; in data set [4] (Group 3: Celecoxib 100 mg/kg QD×15 p.o., Day 9 after the inoculation of tumor cell), 25.2 ± 0.5 g; in data set [4] (setting [8]), 25.8 ± 0.6 g. For the same compound, the “Change of body weight (%)” value in data set [4] (setting [7]) came out at 4.05%; in data set [4] (setting [8]) it was 2.28%.

Turning to `CC(C)Cc1ccc(C(C)C(=O)O)cc1` (centres unmarked) [Ibuprofen], in the data set on H460 cell line, the “effect of the combination on the cell proliferation inhibitory activity of AST-3424” value was “almost no effect”. Besides, in the data set with AKR1C3, the AKR1C3 inhibitory activity entry is “have AKR1C3 inhibitory activity”. Besides, the Cmax was 94 µM in the data set “clinical” and 19400 ng/mL in data set [3] (ibuprofen reference preparation, single dose, fasting, healthy Chinese subjects).
